One assay deals with T-47D cells. Put plainly: Caspase cascade activation (N-(Ac-DEVD)-N'-ethoxycarbonyl-R110 fluorogenic substrate) in T-47D cells. The class given is cell-based, Human. The note with it: 48 h incubation; for EC50: Homo sapiens, T47D, caspase activation potency, read-out: T47 EC50; for T47 Ratio 48 hr: caspase activity: ratio of net RFU of test compound to control. In short, it runs like this: (§1)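 Cells (0.65×10^6/ml) exposed 48 h at 37 °C to compound (0.016-10 μM final), then lysed with 14 μM DEVD-R110 substrate buffer (PIPES pH 7.2, DTT, lysolecithin) for 3 h at room temperature. Net fluorescence (485/530 nm) relative to control; EC50 by sigmoidal dose-response.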

For a further assay, the system named is ZR-75-1 cells. Briefly: Caspase cascade activation (N-(Ac-DEVD)-N'-ethoxycarbonyl-R110 fluorogenic substrate) in ZR-75-1 cells. The note with it: ZR-75-1, 48 h incubation; for EC50: Homo sapiens, caspase activation potency; for ZR Ratio 48 hr: caspase activity: ratio of net RFU of test compound to control. The class given is cell-based, Human. A digest of the protocol:
as §1

Structures can show the parent of a compound that is named as a salt.

In general, EC50 refers to the midpoint of the concentration-response curve.

Regarding `Cc1cc(Nc2c(C)cccc2C)nc(-c2ccccn2)n1` [Example 108, 4-(2,6-Dimethylanilino)-6-methyl-2-(2-pyridinyl)pyrimidine], in the assay with T-47D cells, the EC50 is greater than 5000 nM and the “T47 Ratio 48 hr” value is 0.9. Besides, in the assay on ZR-75-1 cells, the 50% effective concentration (EC50) was determined as 4370 nM and the “ZR Ratio 48 hr” value amounted to 2.4.
`COc1cccc(Nc2cc(-c3ccccn3)nc(-c3ccccn3)n2)c1` [Example 109, 4-(3-Methoxyanilino)-2,6-di(2-pyridinyl)pyrimidine]: in the assay with T-47D cells, the half-maximal effective concentration (EC50) was 1500 nM and the “T47 Ratio 48 hr” value is 3.9. In the assay on ZR-75-1 cells, a half-maximal response (EC50) required 2590 nM and the “ZR Ratio 48 hr” value stood at 3.6.
In the same order, the values of `COc1ccc(OC)c(Nc2cc(-c3ccccn3)nc(-c3ccccn3)n2)c1` [Example 110, 4-(2,5-Dimethoxyanilino)-2,6-di(2-pyridinyl)pyrimidine] are 576 nM, 8.9, 648 nM and 11.6.
On to `COc1ccc(C)c(Nc2cc(-c3ccccn3)nc(-c3ccccn3)n2)c1` [Example 111, 4-(5-Methoxy-2-methylanilino)-2,6-di(2-pyridinyl)pyrimidine], for which, in the assay on T-47D cells, the concentration giving a half-maximal response (EC50) is 1420 nM and the “T47 Ratio 48 hr” value was determined as 4.0. Also, in the assay on ZR-75-1 cells, the midpoint of the response, the EC50, lay at 2570 nM and the “ZR Ratio 48 hr” value is 3.9.
The matching figures for `COc1ccc(C)cc1Nc1cc(-c2ccccn2)nc(-c2ccccn2)n1.Cl` [Example 112, 4-(2-Methoxy-5-methylanilino)-2,6-di(2-pyridinyl)pyrimidine]: 1860 nM, 3.3, 2370 nM and 2.9.
In the same order, the values of `COc1ccc(Cl)c(Nc2cc(-c3ccccn3)nc(-c3ccccn3)n2)c1.Cl` [Example 113, 4-(2-Chloro-5-methoxyanilino)-2,6-di(2-pyridinyl)pyrimidine] are 1430 nM, 4.4, 2730 nM and 4.1.
Regarding `Cc1ccc(C)c(Nc2cc(-c3ccccn3)nc(-c3ccccn3)n2)c1` [Example 114, 4-(2,5-Dimethylanilino)-2,6-di(2-pyridinyl)pyrimidine], in the assay with T-47D cells, the EC50 is 2540 nM and the “T47 Ratio 48 hr” value is recorded as 3.6. For the same molecule, in the assay with ZR-75-1 cells, the EC50 was 2800 nM and the “ZR Ratio 48 hr” value was 3.7.
For the molecule `Cc1ccc(C)c(Nc2cc(C(F)(F)F)nc(-c3ccncc3)n2)c1` [Example 115, 4-(2,5-Dimethylanilino)-2-(4-pyridinyl)-6-(trifluoromethyl)pyrimidine hydrochloride], in the assay on T-47D cells, the EC50 came out at 112 nM and the “T47 Ratio 48 hr” value is reported as 14.2. Also, in the assay with ZR-75-1 cells, the half-maximal effective concentration (EC50) came out at 59 nM and the “ZR Ratio 48 hr” value stood at 11.6.
For `COc1ccc(C)cc1Nc1cc(C(F)(F)F)nc(-c2ccncc2)n1` [Example 116, 4-(2-Methoxy-5-methylanilino)-2-(4-pyridinyl)-6-(trifluoromethyl)pyrimidine], in the assay on T-47D cells, the EC50 was 71 nM and the “T47 Ratio 48 hr” value was found to be 13.7. Also, in the assay on ZR-75-1 cells, the half-maximal effective concentration (EC50) was 73 nM and the “ZR Ratio 48 hr” value was determined as 8.8.
The matching figures for `Cc1ccc(O)cc1Nc1cc(C(F)(F)F)nc(-c2cccnc2)n1` [Example 117, 4-(5-Hydroxy-2-methylanilino)-2-(3-pyridinyl)-6-(trifluoromethyl)pyrimidine]: 138 nM, 11.3, 276 nM and 6.3.
Turning to `Cc1ccc(O)cc1Nc1cc(C(F)(F)F)nc(-c2ccncc2)n1` [Example 118, 4-(5-Hydroxy-2-methylanilino)-2-(4-pyridinyl)-6-(trifluoromethyl)pyrimidine], in the assay on T-47D cells, the EC50 is 34 nM and the “T47 Ratio 48 hr” value turned out to be 8.8. In the assay with ZR-75-1 cells, a half-maximal response (EC50) required 31 nM and the “ZR Ratio 48 hr” value was found to be 9.9.
The matching figures for `Cc1ccc(C#N)c(Nc2cc(C(F)(F)F)nc(-c3cccnc3)n2)c1` [Example 120, 4-(2-Cyano-5-methylanilino)-2-(3-pyridinyl)-6-(trifluoromethyl)pyrimidine]: 2690 nM, 8.2, 2400 nM and 4.5.
The matching figures for `Cc1cc(C)cc(Nc2cc(C(F)(F)F)nc(-c3cccnc3)n2)c1` [Example 121, 4-(3,5-Dimethylanilino)-2-(3-pyridinyl)-6-(trifluoromethyl)pyrimidine]: 480 nM, 11.2, 380 nM and 9.9.
In the same order, the values of `COc1cc(Nc2cc(C(F)(F)F)nc(-c3cccnc3)n2)cc(OC)c1.Cl` [Example 122, 4-(3,5-Dimethoxyanilino)-2-(3-pyridinyl)-6-(trifluoromethyl)pyrimidine hydrochloride] are 44 nM, 11.1, 192 nM and 10.1.
Regarding `Cc1ccc(Cl)c(Nc2cc(C(F)(F)F)nc(-c3cccnc3)n2)c1` [Example 123, 4-(2-Chloro-5-methylanilino)-2-(3-pyridinyl)-6-(trifluoromethyl)pyrimidine], in the assay on T-47D cells, the EC50 came out at 763 nM and the “T47 Ratio 48 hr” value was found to be 21.2. For the same molecule, in the assay with ZR-75-1 cells, the EC50 is 725 nM and the “ZR Ratio 48 hr” value was found to be 15.8.
The matching figures for `COc1cc(Nc2cc(C(F)(F)F)nc(-c3cccnc3)n2)cc(C(F)(F)F)c1` [Example 124, 4-(3-Methoxy-5-trifluoromethylanilino)-2-(3-pyridinyl)-6-(trifluoromethyl)pyrimidine]: 720 nM, 19.9, 688 nM and 16.3.
The matching figures for `COc1ccc(Cl)c(Nc2cc(C(F)(F)F)nc(-c3ccc(C(F)(F)F)nc3)n2)c1` [Example 125, 4-(2-Chloro-5-methoxyanilino)-2-[6-(trifluoromethyl)-3-pyridinyl]-6-(trifluoromethyl)pyrimidine]: 3470 nM, 4.4, 2240 nM and 8.1.
In the same order, the values of `COc1ccc(Br)cc1Nc1cc(C(F)(F)F)nc(-c2cccnc2)n1` [Example 126, 4-(5-Bromo-2-methoxyanilino)-2-(3-pyridinyl)-6-(trifluoromethyl)pyrimidine] are 222 nM, 12.0, 353 nM and 5.9.
For `COc1ccc(Br)c(Nc2cc(C(F)(F)F)nc(-c3cccnc3)n2)c1` [Example 127, 4-(2-Bromo-5-methoxyanilino)-2-(3-pyridinyl)-6-(trifluoromethyl)pyrimidine], in the assay on T-47D cells, the concentration giving a half-maximal response (EC50) amounted to 279 nM and the “T47 Ratio 48 hr” value came out at 10.3. For the same molecule, in the assay on ZR-75-1 cells, the 50% effective concentration (EC50) was 550 nM and the “ZR Ratio 48 hr” value is reported as 5.3.
The matching figures for `Cc1cc(Nc2cc(C(F)(F)F)nc(-c3cccnc3)n2)cc(C(F)(F)F)c1` [Example 128, 4-[3-Methyl-5-(trifluoromethyl)anilino]-2-(3-pyridinyl)-6-(trifluoromethyl)pyrimidine]: greater than 5000 nM, 1.4, greater than 5000 nM and 1.5.
In the same order, the values of `COc1cc(Nc2cc(C(F)(F)F)nc(-c3cccnc3)n2)c(OC)cc1Cl` [Example 130, 4-(4-Chloro-2,5-dimethoxyanilino)-2-(3-pyridinyl)-6-(trifluoromethyl)pyrimidine hydrochloride] are 295 nM, 11.3, 167 nM and 9.7.
Regarding `COc1ccc(Cl)c(Nc2cc(C)nc(N3CCOCC3)n2)c1` [Example 131, 4-(6-Chloro-3-methoxyanilino)-2-morpholino-6-(methyl)pyrimidine], in the assay on T-47D cells, the concentration giving a half-maximal response (EC50) is greater than 5000 nM and the “T47 Ratio 48 hr” value is recorded as 1.2. In the assay on ZR-75-1 cells, the 50% effective concentration (EC50) is greater than 5000 nM and the “ZR Ratio 48 hr” value amounted to 1.2.
As for `COc1cc(Nc2cc(C(F)(F)F)nc(-c3cccnc3)n2)c(C(C)=O)cc1OC` [Example 134, 4-(2-Acetyl-4,5-dimethoxyanilino)-2-(3-pyridinyl)-6-(trifluoromethyl)pyrimidine], in the assay with T-47D cells, the EC50 amounted to 807 nM and the “T47 Ratio 48 hr” value worked out at 16.5. Also, in the assay on ZR-75-1 cells, the EC50 was greater than 5000 nM and the “ZR Ratio 48 hr” value worked out at 1.5.
In the same order, the values of `Cc1cc(Nc2cc(C(F)(F)F)nc(-c3ccccn3)n2)c(C)cc1O.Cl` [Example 147, 4-(2,5-Dimethyl-4-hydroxyanilino)-2-(2-pyridinyl)-6-(trifluoromethyl)pyrimidine hydrochloride] are 335 nM, 13.3, 204 nM and 8.4.
The matching figures for `Cc1cc(Nc2cc(C(F)(F)F)nc(-c3cnccn3)n2)c(C)cc1O.Cl` [Example 148, 4-(2,5-Dimethyl-4-hydroxyanilino)-(2-pyrazinyl)-6-(trifluoromethyl)pyrimidine hydrochloride]: 412 nM, 13.8, 243 nM and 8.4.
As to `Cc1cc(Nc2cc(C(F)(F)F)nc(-c3ccncc3)n2)c(C)cc1O` [Example 149, 4-(2,5-Dimethyl-4-hydroxyanilino)-2-(4-pyridinyl)-6-(trifluoromethyl)pyrimidine], in the assay on T-47D cells, the half-maximal effective concentration (EC50) came out at 75 nM and the “T47 Ratio 48 hr” value turned out to be 16.0. In the assay on ZR-75-1 cells, the midpoint of the response, the EC50, lay at 46 nM and the “ZR Ratio 48 hr” value was 10.0.
